Test results taken from PMC7136958, “Targeting the pregnane X receptor using microbial metabolite mimicry” (EMBO Molecular Medicine, 2020).
Values joined by “and” are separate entries in the source; they are usually repeats but may differ in a detail not shown here. Equal entries are not always repeated.

Experiments:
[1] = molecular target: 468 kinases; test: DiscoverX scanMAX kinase panel (KINOMEscan); format: binding, human; details: for kinase inhibition (in words): panel of 468 kinases
Protocol: Kinase Assays. The kinase inhibition assays were conducted by DiscoverX on a platform assay by Ambit BioSciences as described previously 16,17. FKK6 was screened at a single concentration of 10 μM in duplicate. The scanMAXSM assay panel measures 468 kinases
(https://www.discoverx.com/services/drug-discovery-development-services/kinase-profiling/kinomescan/scanmax). The assays measure a compound’s ability to inhibit binding of a canonical ligand substrate, with 0% activity of control corresponding to full inhibition and 100% activity of control to no inhibition. […]
quantitative measure of compound selectivity based on the number of kinase hits (enzymes inhibited) divided by the total number of distinct kinases tested. Three different activity cut-offs were analyzed – S(35) or % activity of control < 35; S(10) or % activity of control < 10; and S(1) or % activity of control < 1. To illustrate effect or lack of effect, an image of the entire family of kinases tested were grouped by families and S(35). The TREEspot Kinase dendrogram image was generated using TREEspot™ Software Tool and reprinted with permission from KINOME scan®, a division of DiscoveRx […]

[2] = test system: IL-8 mRNA in HIOs; test: IL-8 mRNA in iPSC-derived human intestinal organoids exposed to cytokine cocktail; format: cell-based; parameters: key to IL8 mRNA: relative IL-8 mRNA level, normalized to GAPDH; details: for basal IL-8 expression: 10 and 25 μM; for IL-8 mRNA expression in presence of cytokines: 12 h of exposure; for IL8 mRNA: HIO, triplicate
Protocol: Caco‐2 cell (ATCC, Manassas, VA) passages 25–35 were maintained and expanded in culture flasks in Dulbecco's modified Eagle's medium (DMEM) with 10% FBS and 1× antibiotic–antimycotic. The cells were kept in a humidified 37°C incubator with 5% CO2. Media were changed every 2–3 days, and cells were passaged 1–2 times a week. For all experiments, Caco‐2 cells (5 × 10^4 cells/ml) were seeded into 12‐well Transwell inserts or coverslips and cultured for 3 weeks. HIOs were generated from iPSCs as described previously (Spence et al, 2011), with some modifications. The iPSC cell line IISH1i‐BM1 (WiCell, Madison, WI) was cultured on Matrigel plates to 80% confluence in mTeSR™ 1 medium (Stem Cell Technologies, Seattle, WA) and differentiated to endoderm using Definitive Endoderm Kit (Stem Cell Technologies., Seattle, WA) for 4 days with daily media changes. Endoderm was then differentiated to hindgut for 5 days with the addition of FGF‐4 (500 ng/ml; Peprotech, Rocky Hill, NJ) and Chir99021 (3 μM; Cayman, Ann Arbor, MI) in RPMI media supplemented with 2% FBS. Floating hindgut spheroids were collected on days 3–5 of hindgut differentiation and suspended in Matrigel beads for HIO differentiation. HIOs were maintained in WENRAS media (Fujii et al, 2015), which maintains proliferation in the culture. Stock HIOs were passaged weekly by removing Matrigel with Cell Recovery Solution (Corning, NY) and mechanically breaking up organoids with pipetting. HIOs were seeded into new Matrigel beads at a 1:3 split, using WENRAS with added Rock Inhibitor Y‐27632 (10 μM) and Chir99021 (3 μM; Cayman., Ann Arbor, MI) for the first 2 days of culture.
HIOs and Caco‐2 were exposed to a pro‐inflammatory cytokine cocktail (10 ng/ml IFN‐γ, 10 ng/ml TNF‐α, 50 ng/ml IL‐1β) for 2–24 h in combination with DMSO or FKK5 and FKK6 compounds (10 and 25 μm). Relative mRNA levels of IL‐8 and IL‐6 were determined using quantitative real‐time PCR, with normalization to GAPDH. RNA was isolated using an RNeasy Mini Kit (Qiagen) as per the manufacturer's instructions. On column DNase (Qiagen) was used to remove any contaminating DNA. Next, cDNA was formed using iScript cDNA Synthesis Kit (Bio‐Rad) and 100 ng RNA. qRT–PCR was performed with SsoAdvanced Universal SYBR Green Kit (Bio‐Rad). The following primers were used: IL‐8 Forward: […]; IL‐8 Reverse: […]; IL‐6 Forward: […]; IL‐6 Reverse: […]; GAPDH Forward: […]; GAPDH Reverse: […]. For immunofluorescent staining of NF‐ĸB translocation to the cell nucleus, HIOs and Caco‐2 cell monolayers were fixed in 4% formaldehyde (in 1 × PBS) overnight at 4°C. The formaldehyde was removed by washing with 1 × PBS, and an antigen retrieval step was performed by incubating in 10 mM sodium citrate buffer in a vegetable steamer for 20 min. The samples were then blocked with normal donkey serum (10% in PBS with 0.3% Triton X‐100) for 1 h. Samples were incubated overnight with primary antibodies: rabbit anti‐NF‐κB p65 (D14E12 # 8242, 1:400 dilution, Cell Signaling Technology, Danvers MA), then immersed in Alexa Fluor® 555 donkey anti‐rabbit secondary antibody (A‐31572, Life Technologies) at a 1:500 dilution. Nuclei were stained with Hoechst 33342 (Life Technologies). The samples were then imaged using a Zeiss LSM880 Confocal/Multiphoton Upright Microscope, with 3‐D image rendering using Volocity. For controls, normal rabbit IgG (#2729S, Life Technologies) was used.

[3] = compound 10µm, no cytokines, 2 hr
[4] = cytokines + compound 10µm, 2 hr
[5] = cytokines + compound 25µm, 2 hr

| Compound | kinase inhibition (in words) [1] | basal IL-8 expression [2] | IL-8 mRNA expression in presence of cytokines [2] | IL8 mRNA [2, 3] | IL8 mRNA ([2]; compound 25µm, no cytokines, 2 hr) | IL8 mRNA [2, 4] | IL8 mRNA ([2]; cytokines + compound 10µm, 12 hr) | IL8 mRNA [2, 5] | IL8 mRNA ([2]; cytokines + compound 25µm, 12 hr) | Interactions Mapped (TREEspot) ([1]; 10 μM) | Number of Hits, S(1) ([1]; 10 μM, 403 non-mutant kinases) | Number of Hits, S(10) ([1]; 10 μM, 403 non-mutant kinases) | Number of Hits, S(35) ([1]; 10 μM, 403 non-mutant kinases) |
| --- | --- | --- | --- | --- | --- | --- | --- | --- | --- | --- | --- | --- | --- |
| O=C(c1ccncc1)c1cc2ccccc2n1S(=O)(=O)c1ccccc1 [FKK5, (1-(phenylsulfonyl)-1H-indol-2-yl)(pyridin-4-yl)methanone] | neither of these compounds inhibited the kinases tested | no significant effect | significantly reduced | 18.0113 and 18.2375 and 29.1251 | 28.3595 and 38.1574 and 25.5014 | 84.3969 and 82.9774 and 82.3934 | 1568.63 and 1202.46 and 1346.22 | 91.455 and 107.347 and 106.247 | 1661.53 and 1048.7 and 891.557 |  |  |  |  |
| C#CCC(O)(c1ccncc1)c1cc2ccccc2n1S(=O)(=O)c1ccccc1 (stereo not shown) [FKK6] | neither of these compounds inhibited the kinases tested | no significant effect | significantly reduced | 17.457 and 16.5395 and 13.4302 |  | 87.755 and 95.5702 and 80.4889 |  | 19.632 and 32.9894 and 27.3407 |  | 0 | 0 | 0 | 0 |
